{
  "source": "patent US12115182B2",
  "about": "“Adenosine A2A agonists for the treatment of cytokine storm syndrome” (priority 2021, dated 2024)",
  "key": {"[1]": {"system": "SARS-CoV-2 strain B.1.351", "assay_type": "in vivo, Golden Syrian hamster"}, "SARS CoV-2 [2]": {"system": "SARS CoV-2", "experiment": "Viral lung titers (plaque assay) and viral burden (IHC) in K18-hACE2 mice", "assay_type": "in vivo, mouse", "method": "Viral Lung titers: Titers were determined as described in Moreau et al. (MOREAU et al., Am. J. Trop. Med. Hyg., (2020), 103:1215-1219). Briefly, lungs were homogenized in serum-free DMEM. Titers were determined by infecting Vero C1008, Clone E6 (ATCC CRL-1586) with serial dilutions of the homogenate. After a two-hour incubation, the diluted homogenates were replaced with a liquid overlay of DMEM, 2.5% FBS containing 1.2% Avicel PH-101 (Sigma Aldrich, St. Louis, MO) and incubated at 37° C., 5% CO2. After three days, the overlay was removed, wells were fixed with 10% formaldehyde, and stained with 0.1% crystal violet to visualize plaques. Plaques were counted and PFUs were calculated according to the following equation: Average # of plaques/dilution factor×volume of diluted virus added to the well.\nHistology: Tissues were fixed in 10% formalin. To visualize virus in the lungs, slides were stained with SARS-CoV2 specific anti-nucleoprotein antibody (Cat. No. 9099, ProSci, Poway, CA) as per manufacturer's instructions and then scanned at 20× magnification. The percentage of lung tissue infected with virus was calculated (ImageJ, version 1.53K)."}, "MHS cells": {"system": "MHS cells", "experiment": "RAGE shedding in alveolar macrophages (MHS): Western blot of sRAGE, immunofluorescence of RAGE", "assay_type": "cell-based, mouse", "conditions": "GM6001 2 nM, regadenoson 100 nM; for PMA-induced shedding of cell membrane-anchored RAGE: PMA-treated MHS cells, ATL146e 10 nM"}, "SARS CoV-2 [3]": {"system": "SARS CoV-2", "experiment": "Apadenoson in K18-hACE2 mouse model of COVID-19: survival, weight, clinical scores", "conditions": "for mice survived (combined survival data): Alzet pump 1.44 ug/kg/h, 1250 PFU", "description": "K18-hACE2 mice, ranging in age from 17 to 30 weeks were divided into three groups. One group received saline (vehicle), another received apadenoson 18 hours before viral challenge (drug) and a third received apadenoson five hours post viral challenge (drug with delay). The mice were challenged intranasally with 1250 PFU SARS CoV-2. Mouse weight and clinical scores were recorded daily. Mice were euthanized when they met the criteria for euthanasia (see methods) or at the end of the experiment, which was day 12 post viral challenge.\nInfection and treatment: Twenty-four hours prior to infecting Tg(K18-hACE2)2Prlmn (Jackson Laboratories) male mice with SARS CoV-2, primed 7-day Alzet® osmotic pumps (Durect, Cuperton, CA) containing saline or drug were implanted subcutaneously (MCCRAY et al., J. Virol., (2007), 81:813-821). In the drug with delay treatment group drug delivery was delayed by 24 hours by adding 2.5 cm long tubing to the pump. Apadenoson was delivered at a rate of 1.5 μg/kg/hr. Uninfected littermates received saline or drug with delay via osmotic pumps. Mice were challenged with 1250 plaque forming units (PFU) of Hong Kong/VM20001061/2020 (NR-52282, BEI Resources) via intranasal route under ketamine/xylazine anesthesia. Mice were examined twice daily for clinical symptoms and scored using the following criteria: weight loss (0-5, in 5% of initial weight loss increments), reduced activity (0-3), ruffled fur appearance and hunched posture (0-2), and an eye closure (0-2). Mice were euthanized when weight was <80% of initial weight or when they scored a maximum in two symptom categories. This experiment was repeated three times, with six animals per treatment group each time. […] Statistical differences in weight loss and clinical scores by treatment group were determined using linear mixed models accounting for day post-infection and the day the mouse died (Ime4 and ImerTest packages (BATES et al., J. Stat. Softw., (2015), 67; KUZNETSOVA et al., J. Stat. Softw., (2021), 82) in R (R Core Team 2021). For mice surviving to the end of the experiment (day 12 post-infection), day of death=15 was used. All mouse work was approved by the University's Institutional Animal Care and Use Committee and all procedures were performed in the University's certified animal Biosafety Level Three laboratory, which is fully accredited by the Association for the Assessment and Accreditation of Laboratory Animal Care, International (AAALAC)."}, "[4]": {"system": "BAL fluid cytokines and chemokines", "experiment": "BAL fluid cytokines/chemokines (31 plex Luminex) in SARS CoV-2-infected K18-hACE2 mice", "assay_type": "in vivo, mouse", "method": "Apadenoson treatment elicits cytokine and chemokine responses that are associated with a decrease in weight loss. To assess how apadenoson treatment may be delaying the onset of severe symptoms, mice were treated as before with either vehicle (saline) or apadenoson, delivered with a five-hour delay by osmotic pumps, then euthanized on day five post-infection.\nBAL Cytokines: BAL fluid was collected with 700 μL of PBS and cells were removed via centrifugation. The BAL fluid was analyzed by a Luminex Magpix by the UVA Flow Cytometry Core facility using a Mouse 31 plex panel. Statistical changes in cytokine levels were analyzed using Welch's ANOVA followed by Dunnett's T3 multiple comparisons (Graphpad Prism 9.0). P values were adjusted for multiple testing using the Holm-Sidak method."}, "COVID-19 patients": {"system": "COVID-19 patients", "conditions": "cited from earlier work"}, "[5]": {"conditions": "PI day 7, compared to control group"}, "[6]": {"conditions": "drug with delay treatment group"}, "[7]": {"conditions": "drug and drug with delay-treated groups"}},
  "note": "“Also recorded” adds a separate entry of the source.",
  "data": [
    {"smiles": "CCNC(=O)[C@H]1O[C@@H](n2cnc3c(N)nc(C#CC[C@H]4CC[C@H](C(=O)OC)CC4)nc32)[C@H](O)[C@@H]1O", "note": "[Apadenoson]", "values": [
      {"measurement": "albumin leakage into BAL", "setting": "[1]; [5]", "result": "slight decrease; also recorded: did not significantly"},
      {"measurement": "plasma IL13", "setting": "[1]; [5]", "result": "slightly elevated; also recorded: did not significantly"},
      {"measurement": "time course of the disease or viral titer detected in throat swabs", "setting": "[1]; RT-qPCR", "result": "did not significantly"},
      {"measurement": "plasma IL4", "setting": "[1]; compared to control", "result": "depressed; also recorded: did significantly"},
      {"measurement": "decrease in weight gain", "setting": "[1]; daily weights, vs control group", "result": "did not significantly"},
      {"measurement": "histologic distribution or severity of lung pathology", "setting": "[1]; day 7", "result": "did not significantly"},
      {"measurement": "plasma Transforming Growth Factor beta (TGFb)", "setting": "[1]; day 7, compared to control", "result": "decreased; also recorded: did significantly"},
      {"measurement": "spread of virus to olfactory bulb (brain)", "setting": "[1]; day 7, compared to control", "result": "decreased; also recorded: did significantly"},
      {"measurement": "respiratory physiology parameters (EF50, Rpef, Penh)", "setting": "[1]; whole body plethysmography, PI day 7", "result": "did not significantly"},
      {"measurement": "viral titers in lungs of surviving mice", "setting": "SARS CoV-2 [2]; both drug treatment groups", "result": "below the limit of detection"},
      {"measurement": "average viral titer of lung homogenates", "setting": "SARS CoV-2 [2]; [6]", "result": "trended lower, but was not significant; also recorded: trended lower"},
      {"measurement": "viral burden in lungs by IHC staining", "setting": "SARS CoV-2 [2]; drug with delay treatment group, p=0.0012", "result": "significantly lower"},
      {"measurement": "PMA-induced shedding of cell membrane-anchored RAGE", "setting": "MHS cells", "result": "partially inhibited"},
      {"measurement": "PMA-induced shedding of cell membrane-anchored RAGE", "setting": "MHS cells; listed as apadensoson", "result": "suppressed the shedding of RAGE"},
      {"measurement": "clinical scores compared to vehicle", "setting": "SARS CoV-2 [3]; [7]", "result": "statistically significantly lower"},
      {"measurement": "weight loss compared to vehicle", "setting": "SARS CoV-2 [3]; [7]", "result": "less weight loss"},
      {"measurement": "weight loss and clinical scores on day five post-infection", "setting": "SARS CoV-2 [3]; drug with delay vs vehicle", "result": "not statistically different between groups"},
      {"measurement": "mice survived (combined survival data)", "setting": "SARS CoV-2 [3]; drug with delay", "result": "5/12"},
      {"measurement": "survival curve compared to vehicle", "setting": "SARS CoV-2 [3]; drug with delay-treated group, p=0.0002", "result": "significantly different than vehicle"},
      {"measurement": "mice survived (combined survival data)", "setting": "SARS CoV-2 [3]; drug with no delay", "result": "4/12"},
      {"measurement": "survival curve compared to vehicle", "setting": "SARS CoV-2 [3]; drug-treated group, p=0.066", "result": "did not differ significantly"},
      {"measurement": "cytokines/chemokines not different between uninfected, vehicle-infected control and drug with delay-infected mice", "setting": "[4]; BAL fluid, day five post-infection", "result": "18/31"},
      {"measurement": "levels of eight cytokines and chemokines (MIG, G-CSF, Eotaxin, MIP1b, VEGF, INF-g, TNF-a, KC) in BAL fluid", "setting": "[4]; [6]", "result": "not significantly different from uninfected mice"},
      {"measurement": "IP-10 level in BAL fluid", "setting": "[4]; drug with delay-infected group compared to vehicle, p=0.0223", "result": "statistically higher"},
      {"measurement": "MCP-1 level in BAL fluid", "setting": "[4]; drug with delay-infected group compared to vehicle, p=0.0351", "result": "statistically higher"}
    ]},
    {"smiles": "CNC(=O)[C@H](Cc1c[nH]c2ccccc12)NC(=O)[C@@H](CC(=O)NO)CC(C)C", "note": "[GM6001]", "values": [
      {"measurement": "sRAGE shedding on LPS-treated MHS cells", "setting": "MHS cells; LPS 75 ng/ml, apadenoson 10 nM", "result": "inhibited sRAGE shedding"},
      {"measurement": "levels of sRAGE in the conditional media (Western blot)", "setting": "MHS cells; PMA (20 nM)-treated MHS cells, 24 hours", "result": "decreased"},
      {"measurement": "PMA-induced shedding of cell membrane-anchored RAGE", "setting": "MHS cells", "result": "suppressed the shedding of RAGE; also recorded: partially blocked"}
    ]},
    {"smiles": "Nc1ncnc2c1ncn2[C@@H]1O[C@H](CO)[C@@H](O)[C@H]1O", "note": "[adenosine]", "values": [
      {"measurement": "increase in PaO2/FiO2-ratio", "setting": "COVID-19 patients; aerosolized, twice daily, in 13 out of 14 patients", "result": "> 30", "unit": "%"},
      {"measurement": "death rate", "setting": "COVID-19 patients; inhaled adenosine group, 1/14, control group 11/52 (21%)", "result": 7, "unit": "%"}
    ]}
  ]
}
